Reference: ChEMBL document CHEMBL5725244, “IRE-1α inhibitors” (2016)

Test: Inhibition Assay: A fusion protein comprising glutathione S transferase (GST) and human IRE-1α (GST-IRE-1α) obtained from a 500 ml baculovirus-infected insect cell culture can be used to measure IRE-1α activity in vitro.Five ul of a reaction mixture comprising 1x reaction buffer (5x reaction buffer is 100 mM Hepes pH 7.5, 250 mM KOAc, 2.5 mM MgCl2), 3 mM DTT, and 0.4% polyethylene glycol water is added to each well of 384 well plates. Twenty-five nanoliters of a 1 mM test compound solution are added to test wells. Three ul of a 128 ng/ml IRE-1α preparation are added to each test well and to positive control wells (final concentration 5.82 ng/well). Negative control wells contain only reaction mixture and test compound.After spinning the plates at 1200 rpm for 30 seconds, 3 ul of an IRE-1α human mini-XBP-1 mRNA stem-loop substrate 5'-[…]-3' (SEQ ID NO:1), labeled with the fluorescent dye Cy5 at the 5' end and Black Hole Quencher 2 (BH2) at the 3' end, are added to each well of a control plate. The plates are again spun at 1200 rpm for 30 seconds. Final concentrations for the assay are: 63 nM IRE-1α substrate, 5.82 ng IRE-1α protein, and 2.5 uM test compound. The plates are covered with lids and incubated for one hour at 30° C. The plates are then transferred to an ACQUEST microplate reader. Data is analyzed using data analysis software, and the percent activity of IRE-1α is calculated.

SMILES	IC50 [nM]
CN1CCN(C2CCN(c3ccc4ccc(O)c(CO)c4c3)C2)CC1 (configuration not stated)	> 1000
CN1CCN(c2ccc3ccc(O)c(CO)c3c2)CC1	> 1000
OCc1c(O)ccc2cc(N3CCOCC3)ccc12	> 1000
CN(Cc1ccccc1)C1CCN(c2ccc3c(C=O)c(O)ccc3c2)C1 (configuration not stated)	> 1000
OCc1c(O)ccc2ccc(N3CCCC3)cc12	> 1000
O=C(C1CCN(c2ccc3ccc(O)c(CO)c3c2)C1)N1CCCCC1 (configuration not stated)	> 1000
CN(Cc1ccccc1)C(=O)C1CCN(c2ccc3ccc(O)c(CO)c3c2)C1 (configuration not stated)	> 1000
